{"source": "patent US12390460B2", "about": "“Treatment for obesity” (1GLOBE BIOMEDICAL CO., LTD., priority 2018, dated 2025)", "key": {"FGF21": {"system": "FGF21", "assay": "Serum FGF21 (ELISA) and FGF21 gene expression", "assay_type": "in vivo", "settings": "HFD-fed mice", "text": "Many of the beneficial metabolic effect are linked to FGF21, and FGF21 itself may further enhance fatty acid oxidation (Xu J, et al. Diabetes (2009) 58(1):250-259; Li H, et al. Diabetes (2012) 61(4):797-806). We, therefore, also measured serum levels of FGF21 using a commercially available ELISA kit. […] Accordingly, in an aspect of the invention, Compound 14-3 treatment is utilized to increase fatty acid oxidation, resulting in decreased fat content in iWAT and eWAT, and decreased body weight in a subject."}, "[1]": {"assay": "Oral glucose tolerance test (OGTT)", "assay_type": "in vivo", "settings": "HFD-fed mice, 5th week of treatment, vs vehicle", "experimental": "(§1) The described beneficial changes in body composition improved all aspects of the metabolic syndrome, including the underlying insulin resistance. Therefore, to fully characterize this animal model, we also assessed insulin signaling on live animals on the 5th week of Compound 14-3-treatment by conducting oral glucose tolerance test (OGTT, FIGS. 9A-C) and intraperitoneal insulin tolerance test (ITT, FIGS. 9D-E).\n(§2) Both the OGTT and ITT tests were carried out on mice that have been starved for 6 hours before the procedure to eliminate the effect of the last meal on the blood glucose level. In both tests, we measured fasting glucose levels 30 min before the start of the assay to define baseline conditions. In the OGTT assay, the mice had been gavaged with 2 g/kg glucose, dissolved in water. After administration of the glucose, blood glucose level was measured via tail vein nicking using a commercially available glucometer. The obtained data was plotted against time (FIG. 9A) and the area under curve (AUC) calculations were carried out (FIG. 9B). Additionally, the blood glucose level measured at 120 min after gavage was used to describe the overall glucose tolerance of the mice (FIG. 9C)."}, "[2]": {"assay": "Intraperitoneal insulin tolerance test (ITT)", "assay_type": "in vivo", "settings": "HFD-fed mice, 5th week of treatment, vs vehicle", "experimental": "as §1\nas §2, with “The obtained data was plotted against time (FIG. 9A) and the area under curve (AUC) calculations were carried out (FIG. 9B).” left out\nIn the ITT test, we have intraperitoneally administered […] human recombinant insulin (Humulin N, Eli Lilly, Cambridge, MA) at the start of the assay and blood glucose was similarly measured for 120 min. […]"}, "human HepG2 liver cells": {"system": "human HepG2 liver cells", "assay": "Intracellular triglyceride content in HepG2 cells with palmitoleic acid (biochemical kit)", "assay_type": "cell-based", "settings": "HepG2, 1.6 mM palmitoleic acid, 48 hours, 0.1 μM compound, vs DMSO; FIG. 10A", "experimental": "A series of in vitro experiments were first carried out with various human hepatocyte cultures. For example, human HepG2 liver cells were incubated with 1.6 mM palmitoleic acid in EMEM medium for 48 hours in the presence of 0.1 μM Compound 14-3 or control vehicle, DMSO. After 48 hours, cells were collected and the intracellular triglyceride content was measured by a biochemical kit (Biovision, Mountain View, CA) as described in Derdak et al. J Hepatol. 2013; 58(4):785-91."}, "[3]": {"assay": "Fat pad weights at euthanasia (body composition)", "assay_type": "in vivo", "settings": "HFD-fed mice at euthanasia", "text": "In agreement with effects of Compound 14-3 seen in the above examples, favorable changes in the body composition of Compound 14-3-treated and HFD-fed mice were also observed at the time of euthanasia through gross examination.\nThe former anatomical site represents visceral fat depos, while the latter belongs to subcutaneous fat depo from the perspective of human health. Both of these changes were considered very substantial and beneficial in the anti-obesity effect profile of the compound of the invention."}, "TGF-β": {"system": "TGF-β", "assay": "TGF-β gene expression in eWAT", "assay_type": "in vivo", "settings": "HFD-fed mice; FIG. 4C", "text": "Since obesity has been linked to low-grade inflammation in the adipose tissue, we consequently observed increased TGF-β expression in the epididymal fat pads of the HFD-fed mice."}, "leptin": {"system": "leptin", "assay": "Serum leptin (ELISA)", "assay_type": "in vivo", "settings": "HFD-fed mice, FIG. 7C", "text": "Since crosstalk between leptin and FGF21 has been proposed in connection with the anti-obesity effects of FGF21 and a suppressive effect of exogenous FGF21 on circulating leptin levels has been previously observed in non-human primates, we also measured serum leptin levels using a commercially available ELISA kit. As expected, changes in fat content in the Compound 14-3-treated HFD group were followed by decrease in serum levels of fat-derived ‘satiety’ hormone leptin, indicating improved leptin resistance resulting from treatment using a compound of the invention (FIG. 7C). Thus, lower circulation levels of leptin were most likely due to drug-induced reductions in the masses of fat depos. This finding can explain decrease in POMC gene expression in the hypothalamus, as leptin is capable to directly modulate hypothalamic melanocortin system by changing the activity of POMC neurons."}, "[4]": {"system": "intestinal fat absorption", "assay": "Fecal triglyceride content (biochemical kit) in HFD-fed mice", "assay_type": "in vivo", "settings": "5th week of treatment, vs vehicle, FIG. 2A", "experimental": "Referring to FIG. 2A, the fecal triglyceride content was assessed using a standard biochemical kit (Biovision, Mountain View, CA). Fecal samples were collected on the 5th week of the treatment over the course of three days. The fecal triglyceride content was normalized to fecal mass. […] Therefore, this mechanism cannot explain the observed significant weight loss in the drug-treated mice."}, "[5]": {"system": "hypothalamic molecular mediators of hunger and satiety signaling (AgRP, NPY, POMC)", "assay": "Quantitative real-time PCR of hypothalamic hunger and satiety genes", "assay_type": "in vivo", "settings": "HFD-fed mice, FIG. 2B", "experimental": "Referring now to FIG. 2B, hypothalamic molecular mediators of hunger and satiety signaling in hypothalamus were analyzed using quantitative real-time PCR with commercially available probes (Thermo Fisher Scientific Inc., Waltham, MA). AgRP and NPY are hunger-inducing signals, while POMC is powerful satiety-inducing signal in the hypothalamus. […] This was in agreement with the food intake information that we collected over the course of the experiment. […] Therefore, it was concluded that the expression levels of hypothalamic hunger or satiety genes cannot explain the marked weight loss of the Compound-14-3-treated mice on HFD and that decrease in satiety was secondary to prolonged negative energy balance in the same group."}}}
{"smiles": "CCN(CC)CCNC(=O)c1c(C)[nH]c(/C=C2\\C(=O)Nc3ccc(-c4csc(-c5ccccc5)n4)cc32)c1C", "note": "[Compound 14-3]", "values": [{"measurement": "serum FGF21 levels", "setting": "FGF21; ELISA, FIG. 7A", "result": "increased"}, {"measurement": "FGF21 gene expression", "setting": "FGF21; FIG. 7B", "result": "increased"}, {"measurement": "glucose tolerance (OGTT)", "setting": "[1]; 6 h starved, 2 g/kg glucose gavage, FIG. 9A", "result": "markedly improved"}, {"measurement": "area under curve during OGTT", "setting": "[1]; FIG. 9B", "result": "smaller"}, {"measurement": "blood glucose level at 120 min during OGTT", "setting": "[1]; FIG. 9C", "result": "decreased"}, {"measurement": "blood glucose levels in response to insulin (ITT)", "setting": "[2]; i.p. insulin, 120 min, FIG. 9D", "result": "steeper drop"}, {"measurement": "area under curve during ITT", "setting": "[2]; FIG. 9E", "result": "smaller"}, {"measurement": "palmitoleic acid-induced increase of intracellular triglyceride content", "setting": "human HepG2 liver cells", "result": "markedly suppressed"}, {"measurement": "epididymal fat pad weights", "setting": "[3]; FIG. 3A", "result": "markedly decreased"}, {"measurement": "epididymal fat/body weight ratio", "setting": "[3]; FIG. 3B", "result": "markedly decreased"}, {"measurement": "unilateral (inguinal) fat pad weights", "setting": "[3]; FIG. 3C", "result": "markedly decreased"}, {"measurement": "inguinal fat/body weight ratio", "setting": "[3]; FIG. 3D", "result": "markedly decreased"}, {"measurement": "TGF-β abundance (gene expression) in eWAT", "setting": "TGF-β", "result": "decreased"}, {"measurement": "serum leptin levels", "setting": "leptin", "result": "decrease"}, {"measurement": "fecal triglyceride content normalized to fecal mass", "setting": "[4]", "result": "little difference"}, {"measurement": "satiety-inducing POMC expression in hypothalamus", "setting": "[5]; vs corresponding control group", "result": "significant decrease"}, {"measurement": "expression of appetite-inducing genes (AgRP, NPY) in hypothalamus", "setting": "[5]; vs vehicle", "result": "no significant difference"}]}
